Usually IC50 stands for the concentration that gives 50% inhibition.

In one assay the target is human NLRP3 (Homo sapiens (Human), UniProt Q96P20). The assay is described as follows: Scintillation Proximity (SPA) NLRP3 Assay: displacement of 3H-MCC950. The following applies: SPA IC50, displacement of 3H-MCC950. Type of assay: binding. For orientation: SPA uses beads or plates that emit light when radiolabelled molecules are held near them.
human NLRP3, sequence (Q96P20 whole entry): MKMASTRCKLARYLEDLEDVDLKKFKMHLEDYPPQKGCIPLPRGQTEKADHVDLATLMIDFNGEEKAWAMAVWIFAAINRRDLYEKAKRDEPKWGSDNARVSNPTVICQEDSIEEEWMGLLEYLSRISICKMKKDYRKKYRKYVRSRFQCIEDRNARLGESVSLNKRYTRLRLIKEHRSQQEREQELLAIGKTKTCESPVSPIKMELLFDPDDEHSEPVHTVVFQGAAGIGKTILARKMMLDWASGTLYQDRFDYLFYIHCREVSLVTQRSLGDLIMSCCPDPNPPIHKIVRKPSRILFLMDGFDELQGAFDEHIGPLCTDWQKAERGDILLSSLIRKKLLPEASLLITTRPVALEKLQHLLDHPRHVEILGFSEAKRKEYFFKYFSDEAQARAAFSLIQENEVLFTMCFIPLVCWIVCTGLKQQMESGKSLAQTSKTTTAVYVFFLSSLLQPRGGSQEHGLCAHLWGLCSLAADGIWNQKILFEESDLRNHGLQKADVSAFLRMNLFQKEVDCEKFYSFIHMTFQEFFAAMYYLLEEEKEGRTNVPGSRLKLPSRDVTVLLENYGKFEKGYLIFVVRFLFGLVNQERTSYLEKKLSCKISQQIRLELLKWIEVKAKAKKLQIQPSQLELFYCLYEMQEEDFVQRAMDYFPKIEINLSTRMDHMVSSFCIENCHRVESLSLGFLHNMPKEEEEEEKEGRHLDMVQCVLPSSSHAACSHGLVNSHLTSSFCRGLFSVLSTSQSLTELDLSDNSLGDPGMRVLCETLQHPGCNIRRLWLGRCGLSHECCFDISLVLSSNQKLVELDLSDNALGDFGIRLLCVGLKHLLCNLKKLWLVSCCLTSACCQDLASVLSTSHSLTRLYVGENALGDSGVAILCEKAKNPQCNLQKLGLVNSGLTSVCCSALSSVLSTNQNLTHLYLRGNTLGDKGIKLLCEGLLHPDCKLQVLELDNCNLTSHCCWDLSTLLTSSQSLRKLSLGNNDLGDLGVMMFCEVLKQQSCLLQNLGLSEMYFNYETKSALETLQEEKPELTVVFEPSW
As for `O=C(N[C@H]1CCC[C@@H]2CC[C@H]1N2c1nnn[nH]1)C1(c2ccc(C3CC3)cc2O)CC1` [93B*, N-((1R,2S,6R)-9-(1H-tetrazol-5-yl)-9-azabicyclo[4.2.1]nonan-2-yl)-1-(4-cyclopropyl-2-hydroxyphenyl)cyclopropane-1-carboxamide], the IC50 is 1 to 10 µM.

The same assay, now with this note: displacement of 3H-MCC950; read-out: SPA IC50.
On to `C[C@H]1CCN(c2nnn[nH]2)C[C@H](NC(=O)C2(c3ccc(OC(F)(F)F)cc3)CC2)C1` (single isomer, unassigned) [57C*], for which the IC50 is more than 100 µM. Consider `C[C@H]1CCN(c2nnn[nH]2)C[C@H](NC(=O)C2(c3ccc(C4CC4)c(F)c3O)CC2)C1` (single isomer, unassigned) [32C*, 1-(4-cyclopropyl-3-fluoro-2-hydroxyphenyl)-N-(5-methyl-1-(1H-tetrazol-5-yl)azepan-3-yl)cyclopropane-1-carboxamide], for which the IC50 fell in the range of 50 to 100 µM. Turning to `C[C@H]1CC[C@@H](NC(=O)C2(c3ccc(C4CC4)cc3O)CC2)CN(c2nnn[nH]2)C1` (single isomer, unassigned) [91A*], the IC50 is less than 1 µM. The same measure, in the same setting: for `C[C@H]1CC[C@H](NC(=O)C2(c3ccc(C4CC4)cc3O)CC2)CN(c2nnn[nH]2)C1` (single isomer, unassigned) [91B*] the value was less than 1 µM; for `CC(C)c1ccc(C2(C(=O)N[C@@H]3C[C@@H](C)CCN(c4nnn[nH]4)C3)CC2)c(O)c1` (single isomer, unassigned) [27C*, 1-(2-hydroxy-4-isopropylphenyl)-N-(5-methyl-1-(1H-tetrazol-5-yl)azepan-3-yl)cyclopropane-1-carboxamide], 50 to 100 µM. On the same count and under the same terms, for `Cc1c(Cl)ccc(C2(C(=O)N[C@@H]3C[C@@H](C)CCN(c4nnn[nH]4)C3)CC2)c1O` (single isomer, unassigned) [21C*, 1-(4-chloro-2-hydroxy-3-methylphenyl)-N-(5-methyl-1-(1H-tetrazol-5-yl)azepan-3-yl)cyclopropane-1-carboxamide] the value was more than 100 µM. The same measure, in the same setting: for `C[C@H]1CCN(c2nnn[nH]2)C[C@H](NC(=O)C2(c3cnc(Cl)cc3O)CC2)C1` (single isomer, unassigned) [99C*] the value was 50 to 100 µM.

With `C[C@@H]1CCN(c2nnn[nH]2)CC(NC(=O)C2(c3ccc(OC(F)F)cc3)CC2)C1` (stereo in doubt) [58B*, 1-(4-(difluoromethoxy)phenyl)-N-((3S,5R)-5-methyl-1-(1H-tetrazol-5-yl)azepan-3-yl)cyclopropane-1-carboxamide], the IC50 was in the range of 1 to 10 µM.

For the molecule `C[C@H]1C[C@H](NC(=O)C2(c3ccc(OC(F)F)cc3O)CC2)[C@@H]2CC[C@H]1N2c1nnn[nH]1` [43D*, N-((1S,2S,4S,5R)-4-methy1-8-(1H-tetrazol-5-yl)-8-azabicyclo[3.2.1]octan-2-yl)-1-(4-(difluoromethoxy)-2-hydroxyphenyl)cyclopropane-1-carboxamide], the IC50 was in the range of 10 to 50 µM. Still for that read-out and setting: for `O=C(N[C@H]1CC[C@@H]2CC[C@H]1N2c1nnn[nH]1)C1(c2ccc(C(F)(F)F)cc2O)CC1` (single isomer, unassigned) [34B*] the value was 1 to 10 µM; for `C[C@H]1CCN(c2nnn[nH]2)C[C@@H](NC(=O)C2(c3cc(F)c(C(F)(F)F)cc3F)CC2)C1` (single isomer, unassigned) [7D*, 1-(2,5-difluoro-4-(trifluoromethyl)phenyl)-N-(5-methyl-1-(1H-tetrazol-5-yl)azepan-3-yl)cyclopropane-1-carboxamide], 1 to 10 µM; for `C[C@@H]1C[C@H](NC(=O)C2(c3ccc(C4CC4)c(F)c3O)CC2)[C@H]2CC[C@@H]1N2c1nnn[nH]1` [83B*, 1-(4-cyclopropy1-3-fluoro-2-hydroxyphenyl)-N-((1R,2S,4R,5S)-4-methyl-8-(1H-tetrazol-5-yl)-8-azabicyclo[3.2.1]octan-2-yl)cyclopropane-1-carboxamide], 10 to 50 µM.

With `C[C@H]1CCN(c2nnn[nH]2)C[C@@H](NC(=O)C2(c3ccc(OC(F)(F)F)cc3)CC2)C1` (single isomer, unassigned) [57D*], the IC50 is 10 to 50 µM. On the same count and under the same terms, for `C[C@H]1C[C@@H](NC(=O)C2(c3ccc(C(F)F)cc3)CC2)[C@@H]2CC[C@H]1N2c1nnn[nH]1` [86C*, 1-(4-(difluoromethyl)phenyl)-N-((1S,2R,4S,5R)-4-methyl-8-(1H-tetrazol-5-yl)-8-azabicyclo[3.2.1]octan-2-yl)cyclopropane-1-carboxamide] the value was more than 100 µM; for `C[C@@H]1CCN(c2nnn[nH]2)C[C@@H](NC(=O)C2(c3ccc(Cl)cc3)CC2)C1` (single isomer, unassigned) [12B*, 1-(4-chlorophenyl)-N-(5-methyl-1-(1H-tetrazol-5-yl)azepan-3-yl)cyclopropane-1-carboxamide], 10 to 50 µM. Same read-out and setting: for `C[C@H]1CCN(c2nnn[nH]2)C[C@H](NC(=O)C2(c3ccc(Cl)c(F)c3F)CC2)C1` (single isomer, unassigned) [4C*, 1-(4-chloro-2,3-difluorophenyl)-N-(5-methyl-1-(1H-tetrazol-5-yl)azepan-3-yl)cyclopropane-1-carboxamide] the value was 50 to 100 µM. Consider `C[C@H]1CCN(c2nnn[nH]2)C[C@H](NC(=O)C2(c3ccc(C(F)(F)F)c(OC(F)F)c3)CC2)C1` (single isomer, unassigned) [54C*], for which the concentration for half-maximal inhibition (IC50) was more than 100 µM. With `C[C@@H]1[C@H](NC(=O)C2(c3ccc(Cl)cc3)CC2)CCCN1c1nnn[nH]1` [Compound 40A, 1-(4-chlorophenyl)-N-[(2R,3R)-2-methyl-1-(1H-tetrazol-5-yl)-3-piperidyl]cyclopropanecarboxamide], the IC50 is more than 100 µM.

As for `Cc1ccc(C2(C(=O)N[C@H]3C[C@@H](C)CCN(c4nnn[nH]4)C3)CC2)cc1` (single isomer, unassigned) [71D*], the IC50 lay within 10 to 50 µM. As to `C[C@@H]1CCN(c2nnn[nH]2)C[C@@H](NC(=O)C2(c3ccc(OC(F)F)c(F)c3)CC2)C1` (single isomer, unassigned) [73B*], the IC50 was 1 to 10 µM. Consider `C[C@H]1CCN(c2nnn[nH]2)C[C@H](NC(=O)C2(c3ccc(Br)cc3)CC2)C1` (single isomer, unassigned) [59C*], for which the IC50 fell in the range of 50 to 100 µM. Turning to `Cc1ccc(C2(C(=O)N[C@H]3C[C@@H](C)CCN(c4nnn[nH]4)C3)CC2)c(O)c1F` (single isomer, unassigned) [74D*], the IC50 lay in the range of 1 to 10 µM.

`C[C@H]1CCN(c2nnn[nH]2)C[C@@H](NC(=O)C2(c3ccc(Cl)cc3O)CC2)C1` (single isomer, unassigned) [60D*]: the IC50 is less than 1 µM.

Consider `C[C@H]1CCN(c2nnn[nH]2)C[C@H](NC(=O)C2(c3ccc(C(F)(F)F)cc3)CC2)C1` (single isomer, unassigned) [61B*], for which the IC50 was 1 to 10 µM.

Regarding `O=C(N[C@H]1CC[C@@H]2CC[C@H]1N2c1nnn[nH]1)C1(c2ccc(OC(F)(F)F)cc2O)CC1` [78B*, N-((1R,2S,5R)-8-(1H-tetrazol-5-yl)-8-azabicyclo[3.2.1]octan-2-yl)-1-(2-hydroxy-4-(trifluoromethoxy)phenyl)cyclopropane-1-carboxamide], the IC50 is 1 to 10 µM. Regarding `C[C@H]1CCN(c2nnn[nH]2)C[C@@H](NC(=O)C2(c3c(F)cc(Cl)cc3F)CC2)C1` (single isomer, unassigned) [72D*], the IC50 was 10 to 50 µM.

The assay is the same for the next values; noted with them: read-out: SPA IC50.
Turning to `Cn1nnnc1-c1cccc(NC(=O)C2(c3ccc(Cl)cc3)CC2)c1` [Comparative Example E1, 1-(4-chlorophenyl)-N-(3-(1-methyl-1H-tetrazol-5-yl)phenyl)cyclopropane-1-carboxamide, reference compound], the IC50 is more than 500 µM.
